{"source": "patent US20090069418A1", "about": "“Compositions and Methods for the Treatment of Disorders Associated with Aberrant Vasodilation” (priority 2007, published 2009)", "key": {"[1]": {"test": "AUDA-BE and its metabolites measured in brain tissue", "type": "in vivo, mice", "source_text": "This concentration was also biologically effective in lowering blood pressure in hypertensive model (Imig et al. (2005) Hypertension 46:975-81). Therefore, in these experiments, the levels of sEH inhibitors in the blood are in the concentration range expected to inhibit the enzyme."}, "mice": {"tested_on": "mice", "type": "in vivo", "source_text": "Male mice between the ages of 16-24 weeks were anesthetized with isoflurane (induction 4-5 vol %; maintenance 1-2 vol %), intubated with a 20G plastic IV catheter, and mechanically ventilated using a rodent ventilator (Inspira, volume-controlled, Harvard Apparatus, MA). ECG and rectal temperature were continuously monitored using a PC-based recording device (PowerLab 8/30, ADInstruments, Colorado Springs, Colo.). The animals were positioned in a right lateral decubital position on a heating pad and rectal temperature was maintained at 37° C. throughout the experiment. A PE-10 catheter was inserted into the left jugular vein for intravenous drug infusion. Using a dissecting microscope, a left-sided thoracotomy was performed in the 4th intercostal space. […] A ligature (8-0 Monosof MV-135-4, ⅜ 5 mm tapered needle, Syneture, Norwalk, Colo.) was placed around the left coronary artery (LCA) approximately 2 mm distal to the left atrial margin. The suture was fed through a short section of PE-10 tubing to form a snare to allow temporary occlusion. The LCA was occluded for 40 minutes; occlusion was confirmed by persistent ECG changes during occlusion and visual paling of the left ventricle (LV). After 40 minutes the snare was released and reperfusion was confirmed with visual hyperemia of the LV and return of the ECG changes. After 2 hours of reperfusion the LCA was re-occluded and fluorescent polymer microspheres (0.4% solution, diameter 1-10 μm; Duke Scientific Corporation, Palo Alto, Calif.) were infused via needle puncture of the LV apex. […] Heart was then excised, rinsed in normal saline, and the right and left atria were removed under the dissecting microscope. The remaining left and right ventricles were weighed and then sliced into seven sections (d=1 mm) for imaging and staining.\nHeart sections were immediately photographed with a digital camera (Canon Powershot A620) under UV light for determination of AAR. Infarct size (I) was determined by staining the heart sections in 1% 2,3,5 triphenyltetrazolium chloride (TTC) in phosphate buffer at pH 7.4 for 10 minutes, followed by 10% neutral buffered formalin (NBF) bath overnight. Pictures were taken the next day under full spectrum light. TTC stained non-infarcted myocardium red, while infarcted myocardium remained white. Both AAR and I areas were calculated in a blinded fashion using standard imaging software (Photoshop Elements 4). A calibration ruler was present in each picture to convert pixels into volume. TTC slices were volume corrected for dehydration following formalin immersion.\nThe 14,15-EET was obtained from BIOMOL (Plymouth Meeting, Pa.). It was dissolved in a vehicle composed of 100% ethanol and saline (1:3), resulting in a final ethanol solution of 25%. […] SNC-162, a non-peptide δ-opioid receptor agonist, was used for comparison of the magnitude of cardioprotection found within the epoxide pathway. SNC-162 (0.1 μg/g iv over 10 minutes) was dissolved in 10% DMSO."}, "C57Bl/6 mice": {"tested_on": "C57Bl/6 mice", "test": "Middle cerebral artery occlusion in mice, infarct size (Example 2)", "type": "in vivo", "conditions": "for infarct size after 2-hour MCAO: vehicle 33±2%; for reduction of infarct size compared with vehicle: 10 mg/kg", "procedure": "(2001) J. Neurosci., 21:7543-50). […] A small laser-Doppler probe was affixed to the skull to monitor cortical perfusion and verify vascular occlusion and reperfusion. […] After securing the filament in place, the surgical site was closed, and the animal was awakened and assessed at 2 hours of occlusion for neurological deficit using a simple neurological scoring system as follows: 0=no deficit, 1=failure to extend forelimb, 2=circling, 3=unilateral weakness, 4=no spontaneous motor activity. Mice with clear neurological deficit were re-anesthetized, laser-Doppler probe re-positioned over same site on the skull, and the occluding filament was withdrawn to allow for reperfusion. Mice were then allowed to recover and observed for 1 day. […] Slices were photographed, and infarcted (unstained) and uninfarcted (red color) areas were measured with MCID software (InterFocus Imaging Ltd, Linton, UK) and integrated across all five slices. To account for the effect of edema, the infarcted area was estimated indirectly by subtracting the uninfarcted area in the ipsilateral hemisphere from the contralateral hemisphere, and expressing infarct volume as a percentage of contralateral hemisphere. […] (2000) J. Physiol. Pharmacol., 51:655-72). […] Animals were randomly assigned to treatment groups."}, "[2]": {"test": "Pharmacokinetics of AUDA-BE and its metabolites in plasma after single intraperitoneal injection", "type": "in vivo, C57Bl/6 mice", "procedure": "A second set of animals was injected with sesame oil alone (vehicle). […] (2002) Biochem. Pharmacol., 63:1599-608; Watanabe et al. (2006) Anal. Chim. Acta., 559:37-44). Briefly, blood samples (10 μL) were collected in 1.5 mL Eppendorf microcentrifuge tubes, weighed, and vortexed with 100 μL of purified water. […] Aliquots (10 μL) were analyzed by liquid chromatography coupled mass spectroscopy LC-MS/MS (Watanabe et al. (2006) Anal. Chim. Acta., 559:37-44; Watanabe and Hammock (2001) Anal. Biochem., 299:227-34). The concentration of sEH inhibitors were quantified in extracts using HPLC with positive mode electrospray ionization and tandem mass spectrometry. Analytes were quantified on a 5-point curve with internal standard methods. Surrogate recoveries were evaluated by quantification against the internal standard. Surrogate recoveries were 70% for all reported plasma samples, the analysis of reagent blanks, matrix spikes, and analytical replicates were used to document method stability during this study. […] Differences in infarct size, enzyme activity, and blood flow rates were analyzed with a t-test for two groups and analysis of variance with post hoc Newman-Keuls multiple range test for multiple groups. The pharmacokinetic profile was examined for goodness of fit to a noncompartmental or multicompartmental models. Pharmacokinetic parameters were then obtained by fitting the blood-concentration-time data to a non-compartmental model with the WinNonlin software (Pharsight, Mountain View, Calif., USA), as described previously (Watanabe et al. (2006) Anal. Chim. Acta., 559:37-44). The criterion for statistical significance was set at P<0.05. All values are reported as mean±s.e.m."}}, "note": "Like-named read-outs stand apart in the source and are kept apart here."}
{"molecule": "CCCCOC(=O)CCCCCCCCCCCNC(=O)NC12CC3CC(CC(C3)C1)C2", "note": "[AUDA-BE, 12-(3-adamantane-1-yl-ureido)-dodecanoic acid butyl ester]", "values": [{"measurement": "levels detected in homogenates of brain tissue", "setting": "[1]; after AUDA-BE injection, methanol/chloroform extraction", "value": "not"}, {"measurement": "crossing the blood brain barrier (BBB)", "setting": "[1]; mouse, in vivo", "value": "capable of crossing the blood brain barrier"}, {"measurement": "Infarct Volume", "setting": "mice; PRO (given prior to reperfusion)", "value": "15 ± 3", "unit": "mm^3"}, {"measurement": "infarct size after myocardial I/R compared to vehicle", "setting": "mice; given before ischemia or before reperfusion", "value": "significantly reduced infarct size"}, {"measurement": "Infarct Volume", "setting": "mice; given prior to LCA occlusion (PRE)", "value": "12 ± 2", "unit": "mm^3"}, {"measurement": "infarct size after 2-hour MCAO", "setting": "C57Bl/6 mice; 10 mg/kg intraperitoneally 1 hour before (pre)", "value": "20±5", "unit": "%"}, {"measurement": "infarct size after 2-hour MCAO", "setting": "C57Bl/6 mice; 10 mg/kg intraperitoneally at the time of reperfusion (post)", "value": "16±6", "unit": "%"}, {"measurement": "reduction of infarct size compared with vehicle", "setting": "C57Bl/6 mice; 1 hour before (pre)", "value": 40, "unit": "%"}, {"measurement": "reduction of infarct size compared with vehicle", "setting": "C57Bl/6 mice; at the time of reperfusion (post)", "value": 50, "unit": "%"}, {"measurement": "infarct size after MCAO", "setting": "C57Bl/6 mice; AUDA-BE 10 mg/kg at reperfusion combined with MS-PPOH (0.5 mg/200 mL over 24 hours before MCAO, osmotic minipump)", "value": "34±7", "unit": "%"}, {"measurement": "adverse effects during the 24-hour period after drug administration", "setting": "[2]; 10 or 40 mg/kg doses", "value": "No apparent adverse effects"}, {"measurement": "detection of parent drug in plasma", "setting": "[2]; AUDA-BE 10 mg/kg intraperitoneal", "value": "only the metabolites AUDA and AUBA were detected"}, {"measurement": "maximum concentration in plasma", "setting": "[2]; AUDA-BE 40 mg/kg intraperitoneal, within the first hour", "value": 2, "unit": "µmol/L"}]}
